Reference: the OligoGym collection
HELM strings list units from the 5' end as sugar, base in round brackets, then linkage (d deoxyribose, r ribose, m 2'-O-methyl, p phosphodiester). [sp] = phosphorothioate linkage

Legend:
CTNNB1 [1] = test: HEK293-TLR7, 100 nM ASO, then resiquimod
CTNNB1 [2] = test: HEK293-TLR8, 100 nM ASO, then resiquimod

## RNA1{m(G)[sp].m(G)[sp].m(A)[sp].m(U)[sp].m(C)[sp].d(T)[sp].d(G)[sp].d(C)[sp].d(A)[sp].d(T)[sp].d(G)[sp].d(C)[sp].d(C)[sp].d(C)[sp].d(T)[sp].m(C)[sp].m(A)[sp].m(U)[sp].m(C)[sp].m(U)}$$$$
CTNNB1 [1]
  TLR7 signal (NF-kB luciferase) (% of resiquimod alone): 47.9
CTNNB1 [2]
  TLR8 potentiation (NF-kB luciferase) (fold of resiquimod alone): 1.15

## RNA1{m(G)[sp].m(G)[sp].m(C)[sp].m(C)[sp].m(A)[sp].d(T)[sp].d(C)[sp].d(T)[sp].d(C)[sp].d(T)[sp].d(G)[sp].d(C)[sp].d(T)[sp].d(T)[sp].d(C)[sp].m(U)[sp].m(U)[sp].m(G)[sp].m(G)[sp].m(U)}$$$$
CTNNB1 [1]
  TLR7 signal (NF-kB luciferase) (% of resiquimod alone): 35.9
CTNNB1 [2]
  TLR8 potentiation (NF-kB luciferase) (fold of resiquimod alone): 0.82

## RNA1{m(G)[sp].m(G)[sp].m(G)[sp].m(A)[sp].m(A)[sp].d(A)[sp].d(G)[sp].d(G)[sp].d(T)[sp].d(T)[sp].d(A)[sp].d(T)[sp].d(G)[sp].d(C)[sp].d(A)[sp].m(A)[sp].m(G)[sp].m(G)[sp].m(U)[sp].m(C)}$$$$
CTNNB1 [1]
  TLR7 signal (NF-kB luciferase) (% of resiquimod alone): 51.4
CTNNB1 [2]
  TLR8 potentiation (NF-kB luciferase) (fold of resiquimod alone): 1.76

## RNA1{m(G)[sp].m(G)[sp].m(G)[sp].m(U)[sp].m(C)[sp].d(C)[sp].d(A)[sp].d(C)[sp].d(C)[sp].d(A)[sp].d(C)[sp].d(T)[sp].d(A)[sp].d(G)[sp].d(C)[sp].m(C)[sp].m(A)[sp].m(G)[sp].m(U)[sp].m(A)}$$$$
CTNNB1 [1]
  TLR7 signal (NF-kB luciferase) (% of resiquimod alone): 33.5
CTNNB1 [2]
  TLR8 potentiation (NF-kB luciferase) (fold of resiquimod alone): 1.18

## RNA1{m(G)[sp].m(G)[sp].m(G)[sp].m(U)[sp].m(C)[sp].d(C)[sp].d(A)[sp].d(T)[sp].d(A)[sp].d(C)[sp].d(C)[sp].d(C)[sp].d(A)[sp].d(A)[sp].d(G)[sp].m(G)[sp].m(C)[sp].m(A)[sp].m(U)[sp].m(C)}$$$$
CTNNB1 [1]
  TLR7 signal (NF-kB luciferase) (% of resiquimod alone): 47.6
CTNNB1 [2]
  TLR8 potentiation (NF-kB luciferase) (fold of resiquimod alone): 1.08

## RNA1{m(G)[sp].m(G)[sp].m(U)[sp].m(C)[sp].m(C)[sp].d(A)[sp].d(T)[sp].d(A)[sp].d(C)[sp].d(C)[sp].d(C)[sp].d(A)[sp].d(A)[sp].d(G)[sp].d(G)[sp].m(C)[sp].m(A)[sp].m(U)[sp].m(C)[sp].m(C)}$$$$
CTNNB1 [1]
  TLR7 signal (NF-kB luciferase) (% of resiquimod alone): 105
CTNNB1 [2]
  TLR8 potentiation (NF-kB luciferase) (fold of resiquimod alone): 1

## RNA1{m(G)[sp].m(G)[sp].m(U)[sp].m(G)[sp].m(G)[sp].d(T)[sp].d(G)[sp].d(G)[sp].d(C)[sp].d(C)[sp].d(A)[sp].d(C)[sp].d(C)[sp].d(C)[sp].d(A)[sp].m(U)[sp].m(C)[sp].m(U)[sp].m(C)[sp].m(A)}$$$$
CTNNB1 [1]
  TLR7 signal (NF-kB luciferase) (% of resiquimod alone): 75.6
CTNNB1 [2]
  TLR8 potentiation (NF-kB luciferase) (fold of resiquimod alone): 1.11

## RNA1{m(G)[sp].m(U)[sp].m(C)[sp].m(C)[sp].m(A)[sp].d(A)[sp].d(G)[sp].d(A)[sp].d(T)[sp].d(C)[sp].d(A)[sp].d(G)[sp].d(C)[sp].d(A)[sp].d(G)[sp].m(U)[sp].m(C)[sp].m(U)[sp].m(C)[sp].m(A)}$$$$
CTNNB1 [1]
  TLR7 signal (NF-kB luciferase) (% of resiquimod alone): 32.6
CTNNB1 [2]
  TLR8 potentiation (NF-kB luciferase) (fold of resiquimod alone): 1.96

## RNA1{m(U)[sp].m(A)[sp].m(G)[sp].m(C)[sp].m(G)[sp].d(T)[sp].d(G)[sp].d(T)[sp].d(C)[sp].d(T)[sp].d(G)[sp].d(G)[sp].d(A)[sp].d(A)[sp].d(G)[sp].m(C)[sp].m(U)[sp].m(U)[sp].m(C)[sp].m(C)}$$$$
CTNNB1 [1]
  TLR7 signal (NF-kB luciferase) (% of resiquimod alone): 60.3
CTNNB1 [2]
  TLR8 potentiation (NF-kB luciferase) (fold of resiquimod alone): 1.56

## RNA1{m(U)[sp].m(A)[sp].m(U)[sp].m(U)[sp].m(U)[sp].d(T)[sp].d(A)[sp].d(A)[sp].d(G)[sp].d(C)[sp].d(A)[sp].d(T)[sp].d(A)[sp].d(T)[sp].d(T)[sp].m(A)[sp].m(A)[sp].m(A)[sp].m(A)[sp].m(A)}$$$$
CTNNB1 [1]
  TLR7 signal (NF-kB luciferase) (% of resiquimod alone): 62.3
CTNNB1 [2]
  TLR8 potentiation (NF-kB luciferase) (fold of resiquimod alone): 2.61

## RNA1{m(U)[sp].m(C)[sp].m(A)[sp].m(A)[sp].m(A)[sp].d(G)[sp].d(T)[sp].d(A)[sp].d(T)[sp].d(A)[sp].d(T)[sp].d(A)[sp].d(C)[sp].d(C)[sp].d(T)[sp].m(G)[sp].m(U)[sp].m(U)[sp].m(U)[sp].m(U)}$$$$
CTNNB1 [1]
  TLR7 signal (NF-kB luciferase) (% of resiquimod alone): 64.4
CTNNB1 [2]
  TLR8 potentiation (NF-kB luciferase) (fold of resiquimod alone): 4.27

## RNA1{m(U)[sp].m(C)[sp].m(A)[sp].m(A)[sp].m(U)[sp].d(G)[sp].d(G)[sp].d(G)[sp].d(A)[sp].d(G)[sp].d(A)[sp].d(A)[sp].d(T)[sp].d(A)[sp].d(A)[sp].m(A)[sp].m(G)[sp].m(C)[sp].m(A)[sp].m(G)}$$$$
CTNNB1 [1]
  TLR7 signal (NF-kB luciferase) (% of resiquimod alone): 68.9
CTNNB1 [2]
  TLR8 potentiation (NF-kB luciferase) (fold of resiquimod alone): 3.97

## RNA1{m(U)[sp].m(C)[sp].m(A)[sp].m(U)[sp].m(U)[sp].d(A)[sp].d(T)[sp].d(A)[sp].d(T)[sp].d(T)[sp].d(T)[sp].d(A)[sp].d(C)[sp].d(T)[sp].d(A)[sp].m(A)[sp].m(A)[sp].m(G)[sp].m(C)[sp].m(U)}$$$$
CTNNB1 [1]
  TLR7 signal (NF-kB luciferase) (% of resiquimod alone): 65.5
CTNNB1 [2]
  TLR8 potentiation (NF-kB luciferase) (fold of resiquimod alone): 4.22

## RNA1{m(U)[sp].m(C)[sp].m(C)[sp].m(A)[sp].m(U)[sp].d(C)[sp].d(C)[sp].d(C)[sp].d(T)[sp].d(T)[sp].d(C)[sp].d(C)[sp].d(T)[sp].d(G)[sp].d(T)[sp].m(U)[sp].m(U)[sp].m(A)[sp].m(G)[sp].m(U)}$$$$
CTNNB1 [1]
  TLR7 signal (NF-kB luciferase) (% of resiquimod alone): 96.4
CTNNB1 [2]
  TLR8 potentiation (NF-kB luciferase) (fold of resiquimod alone): 4.57

## RNA1{m(U)[sp].m(C)[sp].m(U)[sp].m(A)[sp].m(U)[sp].d(T)[sp].d(T)[sp].d(G)[sp].d(T)[sp].d(C)[sp].d(T)[sp].d(A)[sp].d(T)[sp].d(T)[sp].d(T)[sp].m(U)[sp].m(A)[sp].m(U)[sp].m(A)[sp].m(C)}$$$$
CTNNB1 [1]
  TLR7 signal (NF-kB luciferase) (% of resiquimod alone): 92.8
CTNNB1 [2]
  TLR8 potentiation (NF-kB luciferase) (fold of resiquimod alone): 4.61

## RNA1{m(U)[sp].m(C)[sp].m(U)[sp].m(U)[sp].m(A)[sp].d(T)[sp].d(A)[sp].d(A)[sp].d(T)[sp].d(T)[sp].d(A)[sp].d(T)[sp].d(T)[sp].d(G)[sp].d(C)[sp].m(A)[sp].m(A)[sp].m(G)[sp].m(U)[sp].m(G)}$$$$
CTNNB1 [1]
  TLR7 signal (NF-kB luciferase) (% of resiquimod alone): 110
CTNNB1 [2]
  TLR8 potentiation (NF-kB luciferase) (fold of resiquimod alone): 4.58

## RNA1{m(U)[sp].m(G)[sp].m(C)[sp].m(U)[sp].m(U)[sp].d(A)[sp].d(T)[sp].d(T)[sp].d(T)[sp].d(T)[sp].d(A)[sp].d(A)[sp].d(G)[sp].d(C)[sp].d(A)[sp].m(U)[sp].m(A)[sp].m(U)[sp].m(U)[sp].m(A)}$$$$
CTNNB1 [1]
  TLR7 signal (NF-kB luciferase) (% of resiquimod alone): 66.4
CTNNB1 [2]
  TLR8 potentiation (NF-kB luciferase) (fold of resiquimod alone): 2.73

## RNA1{m(U)[sp].m(G)[sp].m(G)[sp].m(C)[sp].m(A)[sp].d(G)[sp].d(G)[sp].d(C)[sp].d(T)[sp].d(C)[sp].d(A)[sp].d(G)[sp].d(T)[sp].d(G)[sp].d(A)[sp].m(U)[sp].m(G)[sp].m(U)[sp].m(C)[sp].m(U)}$$$$
CTNNB1 [1]
  TLR7 signal (NF-kB luciferase) (% of resiquimod alone): 50.4
CTNNB1 [2]
  TLR8 potentiation (NF-kB luciferase) (fold of resiquimod alone): 1.73

## RNA1{m(U)[sp].m(G)[sp].m(U)[sp].m(G)[sp].m(G)[sp].d(C)[sp].d(T)[sp].d(T)[sp].d(G)[sp].d(T)[sp].d(C)[sp].d(C)[sp].d(T)[sp].d(C)[sp].d(A)[sp].m(G)[sp].m(A)[sp].m(C)[sp].m(A)[sp].m(U)}$$$$
CTNNB1 [1]
  TLR7 signal (NF-kB luciferase) (% of resiquimod alone): 47.1
CTNNB1 [2]
  TLR8 potentiation (NF-kB luciferase) (fold of resiquimod alone): 1.57

## RNA1{m(U)[sp].m(U)[sp].m(A)[sp].m(U)[sp].m(U)[sp].d(T)[sp].d(T)[sp].d(A)[sp].d(A)[sp].d(G)[sp].d(C)[sp].d(A)[sp].d(T)[sp].d(A)[sp].d(T)[sp].m(U)[sp].m(A)[sp].m(A)[sp].m(A)[sp].m(A)}$$$$
CTNNB1 [1]
  TLR7 signal (NF-kB luciferase) (% of resiquimod alone): 41.5
CTNNB1 [2]
  TLR8 potentiation (NF-kB luciferase) (fold of resiquimod alone): 2.97

## RNA1{m(U)[sp].m(U)[sp].m(C)[sp].m(A)[sp].m(A)[sp].d(T)[sp].d(G)[sp].d(G)[sp].d(G)[sp].d(A)[sp].d(G)[sp].d(A)[sp].d(A)[sp].d(T)[sp].d(A)[sp].m(A)[sp].m(A)[sp].m(G)[sp].m(C)[sp].m(A)}$$$$
CTNNB1 [1]
  TLR7 signal (NF-kB luciferase) (% of resiquimod alone): 32.9
CTNNB1 [2]
  TLR8 potentiation (NF-kB luciferase) (fold of resiquimod alone): 3.03

## RNA1{m(U)[sp].m(U)[sp].m(C)[sp].m(U)[sp].m(G)[sp].d(C)[sp].d(A)[sp].d(G)[sp].d(C)[sp].d(T)[sp].d(T)[sp].d(C)[sp].d(C)[sp].d(T)[sp].d(T)[sp].m(G)[sp].m(U)[sp].m(C)[sp].m(C)[sp].m(U)}$$$$
CTNNB1 [1]
  TLR7 signal (NF-kB luciferase) (% of resiquimod alone): 42.7
CTNNB1 [2]
  TLR8 potentiation (NF-kB luciferase) (fold of resiquimod alone): 4.06

## RNA1{m(U)[sp].m(U)[sp].m(U)[sp].m(A)[sp].m(U)[sp].d(T)[sp].d(C)[sp].d(A)[sp].d(G)[sp].d(A)[sp].d(T)[sp].d(T)[sp].d(A)[sp].d(C)[sp].d(A)[sp].m(A)[sp].m(U)[sp].m(U)[sp].m(A)[sp].m(A)}$$$$
CTNNB1 [1]
  TLR7 signal (NF-kB luciferase) (% of resiquimod alone): 53.4
CTNNB1 [2]
  TLR8 potentiation (NF-kB luciferase) (fold of resiquimod alone): 3.68

## RNA1{m(U)[sp].m(U)[sp].m(U)[sp].m(U)[sp].m(A)[sp].d(A)[sp].d(G)[sp].d(C)[sp].d(A)[sp].d(T)[sp].d(A)[sp].d(T)[sp].d(T)[sp].d(A)[sp].d(A)[sp].m(A)[sp].m(A)[sp].m(A)[sp].m(G)[sp].m(G)}$$$$
CTNNB1 [1]
  TLR7 signal (NF-kB luciferase) (% of resiquimod alone): 59.4
CTNNB1 [2]
  TLR8 potentiation (NF-kB luciferase) (fold of resiquimod alone): 3.67
